Reference: publication PMC12704139, “(±)-Rutacycoumarins A and B: two pairs of unprecedented coumarin enantiomers from the aerial part of Ruta graveolens L. and chemically synthesized” (Pharmaceutical Biology, 2025)

What was measured:
[1] = system: MAO; parameters: method as in Kozioł et al. [2020]; conditions: reference inhibitors at ∼3–5 μM; ref Kozioł et al. [2020]; cited from earlier work
[2] = system: human MAO-B; parameters: method as in Kozioł et al. [2020]; conditions: 6.17 μM; ref Kozioł et al. [2020]; cited from earlier work
[3] = system: MAO-A; parameters: method as in Kozioł et al. [2020]; conditions: 6.17 μM; ref Kozioł et al. [2020]; cited from earlier work
[4] = system: hMAO-A; parameters: method as in Seong et al. [2019]; conditions: ref Seong et al. [2019], cited from earlier work; for isoform selectivity (in words): hMAO-A versus hMAO-B
[5] = system: hMAO; parameters: method as in Seong et al. [2019]; conditions: enzyme kinetic studies; ref Seong et al. [2019]; cited from earlier work
[6] = system: liver injury; parameters: method as in He et al. [2024]; conditions: suppressing TNF-α/JAK1/STAT3 signaling while enhancing IL-4/IL-10 production; ref He et al. [2024]; cited from earlier work
[7] = target: T1, recombinant human MAO-B (Homo sapiens, UniProt P27338); test: Recombinant human MAO-B enzyme inhibition assay; type: biochemical
T1 construct: purchased Active Motif 31503
T1 sequence (P27338 1-520): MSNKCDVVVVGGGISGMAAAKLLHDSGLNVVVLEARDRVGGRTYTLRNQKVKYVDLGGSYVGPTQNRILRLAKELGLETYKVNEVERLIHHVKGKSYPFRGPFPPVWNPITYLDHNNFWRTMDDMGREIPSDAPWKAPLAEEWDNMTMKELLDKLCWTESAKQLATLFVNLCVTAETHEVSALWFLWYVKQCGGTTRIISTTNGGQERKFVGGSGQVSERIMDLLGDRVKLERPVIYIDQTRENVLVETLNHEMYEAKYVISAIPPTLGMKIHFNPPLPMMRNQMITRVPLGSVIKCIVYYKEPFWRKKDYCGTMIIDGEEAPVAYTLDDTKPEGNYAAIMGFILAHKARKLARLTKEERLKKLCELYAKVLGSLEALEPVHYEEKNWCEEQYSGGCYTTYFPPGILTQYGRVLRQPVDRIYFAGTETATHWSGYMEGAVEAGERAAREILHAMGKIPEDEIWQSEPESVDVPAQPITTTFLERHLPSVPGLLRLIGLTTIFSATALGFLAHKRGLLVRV
Description: All compounds were tested with technical replicates. Compounds (100× final concentration) in 384-well source plates were dispensed (200 nL per well) into assay plates. Min/Max control wells received 200 µL of 100% DMSO. All wells except the Min controls were supplemented with 10 μL of 10 nM MAO-B (Min controls received buffer instead). Plates were centrifuged at 1000 × g for 1 min and incubated at 25 °C for 15 min. Then, 10 μL of 0.5 μM substrate was added to each well. After further centrifugation, the plates were protected from light and incubated for 60 min. The reaction was terminated by adding 20 μL of stop solution, followed by centrifugation and a 20-min equilibration period. Fluorescence was measured using an EnVision microplate reader. The inhibition percentage was calculated as follows: Inhibition (%) = [signal (max)− signal (sample)]/[signal (max) − signal (min)] × 100. Dose–response curves were generated by plotting the logarithm of compound concentration (X-axis) against the percentage inhibition (Y-axis). Curve fitting was performed in GraphPad Prism 8 using the ‘log(inhibitor) vs. response -Variable slope’ model to determine the IC50 values for MAO-B inhibition.

[8] = system: LPS-induced HepG2 cells; test: ALT and AST in supernatant of LPS-induced HepG2 cells; type: cell-based, Homo sapiens; conditions: HepG2, 100 ng/mL LPS, compounds 10, 20, 40 μM; p < 0.01 vs. model
Description: (§1) An LPS-induced hepatocyte injury model was established in HepG2 cells by treatment with 100 ng/mL LPS, using silymarin as a positive control. After treatment with test compounds at concentrations of 10, 20, and 40 μM, the cell culture supernatant was collected and centrifuged at 1000 × g for 15 min at 4 °C. The levels of alanine aminotransferase (ALT) and aspartate aminotransferase (AST) in the supernatant were quantified using commercial assay kits according to the manufacturer’s instructions. Absorbance was measured at 510 nm using a microplate reader, and results are expressed in units per liter (U/L). Additionally, the concentrations of interleukin-4 (IL-4), interleukin-10 (IL-10), and tumor necrosis factor-α (TNF-α) in the supernatant were determined by enzyme-linked immunosorbent assay (ELISA) using corresponding commercial kits. All procedures were performed in strict accordance with the manufacturer’s protocols. Cytokine levels are reported in picograms per milliliter (pg/mL), as calculated from the respective standard curves.
Silymarin was used as a positive control. The supernatant of HepG2 cells was collected from different experimental groups and separated by centrifugation (4 °C, 1000 rpm, 15 minutes). The levels of ALT and AST in the supernatant were determined following the manufacturer's instructions provided with the commercial assay kits. The optical density (OD) values of each well were measured at a wavelength of 510 nm using a microplate reader. These values are expressed in units per liter (U/L) or millimoles per liter (mmol/L).

[9] = system: LPS-induced HepG2 cells; test: IL-4, IL-10 and TNF-α in supernatant of LPS-induced HepG2 cells (ELISA); type: cell-based, Homo sapiens; conditions: for LPS-induced inflammatory response (pro-inflammatory cytokines): HepG2, LPS
Description: as §1
The cell culture supernatant was collected and separated by centrifugation at 4°C and 1000 rpm for 15 minutes. Levels of IL-4, IL-10, and TNF-α in the supernatant were determined using enzyme-linked immunosorbent assay (ELISA), strictly following the manufacturer’s protocols provided with the corresponding commercial ELISA kits. These values were quantified in picograms per milliliter (pg/mL) based on the standard curves generated.

[10] = system: human MAO-B (hMAO-B); parameters: method as in Dhiman et al. [2018]; conditions: ref Dhiman et al. [2018], cited from earlier work
[11] = system: hMAO-B; parameters: method as in Seong et al. [2019]; conditions: ref Seong et al. [2019]; cited from earlier work
[12] = HepG2 supernatant, LPS, 10–40 μM, ELISA

SMILES: C#CCN(C)CCCOc1ccc(Cl)cc1Cl [clorgyline]
- MAO inhibition [1]: > 99%

SMILES: C=CC(C)(C)c1cc2cc3c(cc2oc1=O)OC(C(C)(C)OC(C)=O)C3 (stereo not shown) [rutamarin]
- inhibition rate of human MAO-B [2]: 95.26%
- inhibition of MAO-A [3]: 25.15%

SMILES: O=Cc1c(O)ccc2ccc(=O)oc12 [8-formyl umbelliferone]
- isoform selectivity (in words) [4]: selectivity for hMAO-A versus hMAO-B
- mode of hMAO inhibition [5]: competitive

SMILES: C#CCN(C)[C@H](C)Cc1ccccc1 [selegiline]
- MAO inhibition [1]: > 99%

SMILES: O=C(O)c1cc2ccc(=O)oc2cc1O [umbelliferone-6-carboxylic acid]
- isoform selectivity (in words) [4]: selectivity for hMAO-A versus hMAO-B

SMILES: Cn1c(-c2ccc3c(c2)OCO3)cc(=O)c2ccccc21 [graveoline]
- hepatoprotective effect [6]: attenuates liver injury

SMILES: COc1cc2cc(C3CC3(C)C)c(=O)oc2cc1O (racemic) [(±)-2, (±)-Rutacycoumarin B]
- MAO-B inhibition (in words) [7]: potently inhibited
- LPS-elevated ALT level [8]: significant suppression
- LPS-elevated AST level [8]: significant suppression
- LPS-induced inflammatory response (pro-inflammatory cytokines) [9]: significant suppression
- IL-4 level [9, 12]: dose-dependently restored
- IL-10 level [9, 12]: dose-dependently restored
- TNF-α expression [9, 12]: suppressed

SMILES: O=c1ccc2ccc(O)cc2o1 [umbelliferone]
- isoform selectivity (in words) [4]: selectivity for hMAO-A versus hMAO-B

SMILES: O=C(Oc1ccc2ccc(=O)oc2c1)C(O)c1ccccc1 (stereo not shown) [2-oxo-2H-chromen-7-yl 2-hydroxy-2-phenylacetate]
- selectivity index ([10]; hMAO-B): 8.55
- IC50 [10]: 10.32 ± 0.044 µM

SMILES: O=Cc1cc2ccc(=O)oc2cc1O [6-formyl umbelliferone]
- IC50 [11]: 15.3 µM
- isoform selectivity (in words) [4]: selectivity for hMAO-A versus hMAO-B
- IC50 [4]: 3.23 µM
- mode of hMAO inhibition [5]: competitive

SMILES: CC1(C)CC1c1cc2ccc(O)cc2oc1=O (racemic) [(±)-1, (±)-Rutacycoumarin A]
- MAO-B inhibition (in words) [7]: potently inhibited
- LPS-elevated ALT level [8]: significant suppression
- LPS-elevated AST level [8]: significant suppression
- LPS-induced inflammatory response (pro-inflammatory cytokines) [9]: significant suppression

SMILES: O=c1ccc2cc(O)c(O)cc2o1 [esculetin]
- isoform selectivity (in words) [4]: selectivity for hMAO-A versus hMAO-B

SMILES: COc1cc2ccc(=O)oc2cc1O [scopoletin]
- isoform selectivity (in words) [4]: selectivity for hMAO-A versus hMAO-B
